The text below walks through data of patent publication US6867198B2, “Agents and methods for the treatment of proliferative diseases” (Eli Lilly and Company, priority 1999, dated 2005).

For orientation: IC50 means the concentration needed to halve the response being measured. A low value points to higher potency.

T1 sequence (P11802 whole entry): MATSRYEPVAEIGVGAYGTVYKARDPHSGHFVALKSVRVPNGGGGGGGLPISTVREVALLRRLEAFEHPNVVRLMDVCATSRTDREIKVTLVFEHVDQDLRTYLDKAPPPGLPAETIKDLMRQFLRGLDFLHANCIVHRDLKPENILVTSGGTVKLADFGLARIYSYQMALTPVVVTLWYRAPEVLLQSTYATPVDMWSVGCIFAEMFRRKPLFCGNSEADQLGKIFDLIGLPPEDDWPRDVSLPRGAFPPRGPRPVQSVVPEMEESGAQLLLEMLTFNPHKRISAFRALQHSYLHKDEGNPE
T1 sequence (P24385 whole entry partner): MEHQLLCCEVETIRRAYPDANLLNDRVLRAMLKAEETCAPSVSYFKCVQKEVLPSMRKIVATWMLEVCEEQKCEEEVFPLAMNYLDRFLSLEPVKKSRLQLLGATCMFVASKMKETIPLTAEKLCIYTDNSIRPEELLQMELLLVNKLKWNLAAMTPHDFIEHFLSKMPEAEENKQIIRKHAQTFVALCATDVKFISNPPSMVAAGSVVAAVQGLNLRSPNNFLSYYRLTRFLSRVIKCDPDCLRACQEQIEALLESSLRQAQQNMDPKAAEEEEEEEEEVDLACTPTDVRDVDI

The first test deals with Ser-780 pRb phosphorylation in HCT116 cells. In words: Inhibition of Rb Phosphorylation Assay. The format is cell-based, Human. The note with it: compound at 1×, 2× and 3×IC50, 24 hours, immunoblot. How it is done: Inhibition of Rb Phosphorylation Assay
Human HCT116 colon carcinoma cell line was purchased from American Tissue Culture Collection (Rockville, Md.) and maintained as monolayer in RPMI-1640 with L-Glutamine and 25 mM HEPES supplemented with 10% fetal bovine serum in a 37° C. incubator with a 10% CO2 atmosphere. The detection of mycoplasm in cultured cells was performed using Mycoplasma Rapid Detection System (TaKaRa Shuzo Co. Ltd., Shiga, Japan) every 2-3 months and the cells were found consistently negative throughout these experiments. The Rb phosphorylation assay was done be plating 4×10^5 cells/well in 6-well plates. […] At the end of the incubation period the mediumj was removed and the cells were washed twice with cold PBS containing 1 mM sodium orthovanadate (Na3VO4). […] Protein concentration was determined by the Bio-Rad DC protein assay (Bio-Rad, Hercules, Calif.). […] Proteins were detected by capturing image of the membrane using Quantity One Software on a Fluor-S multi-Imager (Bio-Rad, Hercules, Calif.) in a linear range. Specific bands were quantified using Quantity One Software. […] Results are expressed as a percentage inhibition of Ser-780 pRb phosphorylation in drug treated cells versus control DMSO treated cells.
A general note: A western blot detects proteins with antibodies after separation by electrophoresis.
As for `O=C1NC(=O)c2c1c1c3ccccc3[nH]c1c1c2c2cccc3c2n1CCC3` [Example 52, 11H, 12H, 14H-pyrrolo[3,4-c]quinolino[8′,8a′,1′:3,2,1]-pyrrolo[2,3-a]carbazole-5,7-dione], the “inhibition of Ser-780 pRb phosphorylation” value is “inhibit Rb (retinoblastoma protein) phosphorylation”.

The next test concerns protein kinase A.
Assay: not given
The note with it: cited from earlier work.
Regarding `CN1CC[C@H](c2c(O)cc(O)c3c(=O)cc(-c4ccccc4Cl)oc23)[C@H](O)C1` [Flavopiridol], the “concentration inhibiting protein kinase A” value is listed as ≥ 10 μM/L.

The next test concerns protein kinase C.
Assay: not given
The note with it: cited from earlier work.
Consider `CN1CC[C@H](c2c(O)cc(O)c3c(=O)cc(-c4ccccc4Cl)oc23)[C@H](O)C1` [Flavopiridol], for which the “concentration inhibiting protein kinase C” value is recorded as ≥ 10 μM/L.

In another test the test system is HCT-116 and NCI H460 cell lines. In words: Cell Cycle Analysis Using Flow Cytometry. It is filed as cell-based. The note with it: compound at 1×IC50 and 3×IC50, 24 hours, DNA histogram analysis. As to the method:
Cell Cycle Analysis Using Flow Cytometry
The HCT-116 and NCI H460 cell lines were seeded in 75 cm^2 flasks at 5×10^5 cells/25 ml RPMI 1640 medium containing 10% dialyzed fetal bovine serum. They were incubated for 24 hours. Compound is then added at 1×IC50 and 3×IC50 (determined from above section “growth inhibition studies”) and incubated for an additional 24 hours. The cells were subsequently harvested and the protocol (Robinson, J. P. and Darzynkiewicz, Z. Current Protocols in Cytometry. 1997) for staining was followed. DNA histogram analysis was performed using ModFit LT (Verity House).
Consider `O=C1NC(=O)c2c1c1c3ccccc3[nH]c1c1c2c2cccc3c2n1CCC3` [Example 52, 11H, 12H, 14H-pyrrolo[3,4-c]quinolino[8′,8a′,1′:3,2,1]-pyrrolo[2,3-a]carbazole-5,7-dione], for which the cell cycle arrest result is on record as “arrest cells in the G1 phase of the cell cycle”.

Another test addresses T1, cyclin D1-cdk4 (Homo sapiens, UniProt P11802). In words: Assay of Cyclin D1-cdk4 Kinase Activity with the Rb21 Protein as Substrate. It is filed as biochemical. The note with it: Rb21 protein 5 ug as substrate, 30 uM ATP, 60 minutes at room temperature. How it is done: Assay of Cyclin D1-cdk4 Kinase Activity with the Rb21 Protein as Substrate
The cyclin D1-cdk4 kinase activity of a compound was assayed by preparing a 100 ul reaction at the following concentrations: 20 mM Hepes pH 7.0, 10 mM MgCl2, 30 uM ATP, 5 ug of Rb21 protein (Santa Cruz Biotech, Catalog #sc-4112), 1.0 uCi of γ-^33P-ATP, 1.09 ug of cyclin D-cdk4 enzyme, 4% DMSO, and various concentrations of inhibitor. The reaction was incubated at room temperature (about 74° F.) for 60 minutes, and then terminated by the addition of 100 ul of 25% trichloroacetic acid. Next, the reaction was filtered through a Millipore Multiscreen-FC Plate—Catalog number MAFC NOB 10, and the plate was washed 2 times with 320 ul each of 10% trichloroacetic acid, followed by the addition of 100 ul of scintillation fluid and quantitation on a Packard Instruments, Top Count, scintillation counter.
`O=C1NC(=O)c2c1c1c3ccccc3[nH]c1c1c2c2cccc3c2n1CCC3` [drawing 228] returned a 50% inhibitory concentration (IC50) of 65 nM. On to `CC(C)(C)OC[C@H]1Cn2c3c(cccc3c3c4c(c5c6ccccc6[nH]c5c32)C(=O)NC4=O)CN1` [drawing 229], for which the IC50 was 66.6 nM. `CC1Cn2c3c(cccc3c3c4c(c5c6ccccc6[nH]c5c32)C(=O)NC4=O)CN1C(=O)[C@H](C)N` (stereo partly drawn) [drawing 233] had an IC50 of 180 nM.

On to `CC1(C)CCn2c3c1cc(F)cc3c1c3c(c4c5ccccc5[nH]c4c12)C(=O)NC3=O` [drawing 234], for which the concentration for half-maximal inhibition (IC50) was determined as 202 nM. For the compound `CC1(C)Cc2cccc3c4c5c(c6c7ccc(CN)cc7[nH]c6c4n(c23)C1)C(=O)NC5=O` [drawing 235], the half-inhibitory concentration (IC50) was 30.1 nM.

In turn, `O=C1NC(=O)c2c1c1c3ccc(CN4CCCC4)cc3[nH]c1c1c2c2cccc3c2n1CCC3` [drawing 236] had an IC50 of 11.1 nM. Same read-out and setting: as for `CN1Cc2cccc3c4c5c(c6c7ccccc7[nH]c6c4n(c23)C1)C(=O)NC5=O` [drawing 237], the figure is 15.5 nM; as for `O=C1NC(=O)C(c2cn3c4c(cccc24)CCC3)=C1c1c[nH]c2ccccc12` [drawing 238], 709 nM; as for `O=C1NC(=O)C(c2cn3c4c(cccc24)CC(CO)C3)=C1c1c[nH]c2ccccc12` (stereo not drawn) [drawing 239], 811 nM.

The test system of another test is HCT-116 or NCI H460 cells. The experiment in a line: Cell Growth Inhibition Assay (MTT). The note with it: 72 h of drug exposure. The format is cell-based. As to the method: Cell Growth Inhibition Assay
The MTT assay was used to measure growth inhibitory activity (Schultz, R. M., et. al. Oncology Res. 5, 223-228, 1993). […] Basically, 1000 HCT-116 or NCI H460 cells were added per well to 96-well flat-bottom plates in 100-ul RPMI 1640 medium containing 10% dialyzed fetal bovine serum. The plates were incubated for 24 h prior to addition of test compounds. A stock solution (10 mM) was prepared in DMSO and serially diluted in medium. Compound dilutions were added to triplicate wells, and the plates were incubated for 72 hours. […].
Regarding `O=C1NC(=O)c2c1c1c3ccccc3[nH]c1c1c2c2cccc3c2n1CCC3` [Example 52, 11H, 12H, 14H-pyrrolo[3,4-c]quinolino[8′,8a′,1′:3,2,1]-pyrrolo[2,3-a]carbazole-5,7-dione], the cell growth inhibition entry is “inhibit cell growth”.

For the next test, the target named is T1, cyclin D1-cdk4. The experiment in a line: Assay of Cyclin D1-cdk4 Kinase Activity with the ING Peptide as Substrate. The note with it: ING peptide 200 uM as substrate, 300 uM ATP, 60 minutes at room temperature. The format is biochemical. How it is done:
Assay of Cyclin D1-cdk4 Kinase Activity with the ING Peptide as Substrate
The cyclin D1-cdk4 kinase activity of a compound was assayed by preparing a 100 ul reaction at the following concentrations: 35 mM Hepes pH 7.0, 10 mM MgCl2, 300 uM ATP, 200 uM ING peptide, 1.0 uCi of γ-^33P-ATP, 4.34 ug of cyclin D-cdk4 enzyme, 4% DMSO, and various concentrations of inhibitor. The reaction was incubated at room temperature (about 74° F.) for 60 minutes, and then terminated by the addition of 100 ul of 10% phosphoric acid. Next, the reaction was filtered through a Millipore Multiscreen-PH Plate—Catalog number MAPH NOB 10, and the plate was washed 2 times with 320 ul each of 0.5% phosphoric acid, followed by the addition of 100 ul of scintillation fluid and quantitation on a Packard Instruments, Top Count, scintillation counter.
As to `O=C1NC(=O)c2c1c1c3ccccc3[nH]c1c1c2c2cccc3c2n1CC(CO)C3` (stereo not drawn), the IC50 stood at 127 nM. On the same count and under the same terms, the value for `O=C1NC(=O)c2c1c1c3ccccc3[nH]c1c1c2c2cccc3c2n1C(CO)CC3` (stereo not drawn) was 78.7 nM; that for `O=C1NC(=O)c2c1c1c3ccccc3[nH]c1c1c2c2cccc3c2n1CCC3CO` (stereo not drawn) was 64.5 nM; that for `O=C1NC(=O)C(c2cn3c4c(cccc24)CCC3CO)=C1c1c[nH]c2ccccc12` (stereo not drawn) was 151 nM. On the same count and under the same terms, the value for `CC1(C)CCn2cc(C3=C(c4c[nH]c5ccccc45)C(=O)NC3=O)c3cc(F)cc1c32` was 1560 nM; that for `CC1(C)Cc2cccc3c(C4=C(c5c[nH]c6cc(CN)ccc56)C(=O)NC4=O)cn(c23)C1` was 793 nM; that for `CN1Cc2cccc3c(C4=C(c5c[nH]c6ccccc56)C(=O)NC4=O)cn(c23)C1` was 455 nM.

On to `O=C1NC(=O)c2c1c1c3ccccc3[nH]c1c1c2c2cccc3c2n1CCC3` [drawing 212], for which half-maximal inhibition (IC50) was put at 105 nM. The same measure, in the same setting: the value for `CC(C)(C)OC[C@H]1Cn2c3c(cccc3c3c4c(c5c6ccccc6[nH]c5c32)C(=O)NC4=O)CN1` [drawing 213] was 116 nM; that for `CC1Cn2c3c(cccc3c3c4c(c5c6ccccc6[nH]c5c32)C(=O)NC4=O)CN1C(=O)[C@H](C)N` (stereo partly drawn) [drawing 217] was 269 nM.

`CC1(C)CCn2c3c1cc(F)cc3c1c3c(c4c5ccccc5[nH]c4c12)C(=O)NC3=O` [drawing 218] had a half-maximal inhibitory concentration (IC50) of 466 nM.

`CC1(C)Cc2cccc3c4c5c(c6c7ccc(CN)cc7[nH]c6c4n(c23)C1)C(=O)NC5=O` [drawing 219] gave an IC50 of 173 nM. For the compound `O=C1NC(=O)c2c1c1c3ccc(CN4CCCC4)cc3[nH]c1c1c2c2cccc3c2n1CCC3` [drawing 220], the IC50 is 51.3 nM. On to `CN1Cc2cccc3c4c5c(c6c7ccccc7[nH]c6c4n(c23)C1)C(=O)NC5=O` [drawing 221], for which the IC50 turned out to be 36.8 nM.

The compound `O=C1NC(=O)C(c2cn3c4c(cccc24)CCC3)=C1c1c[nH]c2ccccc12` [drawing 222] had an IC50 of 786 nM.

Regarding `O=C1NC(=O)C(c2cn3c4c(cccc24)CC(CO)C3)=C1c1c[nH]c2ccccc12` (stereo not drawn) [drawing 223], the concentration for half-maximal inhibition (IC50) was 367 nM.
